From patent US11696913B2, “Prolonged ectoparasite-controlling agent for animal” (MITSUI CHEMICALS AGRO, INC., priority 2017, dated 2023)
Read-outs that look alike come from different tables or passages of the source.

Key:
Ctenocephalides felis = experiment: Topical treatment in-vivo test with cat flea on rats; conditions: topical spot-on
Description: (§1) Topical Treatment In-Vivo Test with American Dog Tick Nymph and Cat Flea on Rats
(§2) Type of study and overall study design: The method is a randomized non-blinded efficacy study in accordance with European animal welfare requirements. Rats (Rattus norvegicus) were randomized based on pre-treatment flea counts. The efficacy of treatment was determined by comparison of the flea and tick counts of different treatment groups versus the placebo-treated control group. The experimental unit was the individual study animal.
(§3) Method and route of administration: The compound was applied in a suitable solvent and carrier (more specifically, added to the following mixture: 33.3% by weight propylene carbonate, […] N-methylpyrrolidone, 0.1% by weight BHA, 0.05% by weight BHT) considering the individual body weight as topical spot-on between the shoulder blades directly onto the skin.
(§4) Experimental infestation: On the day of treatment and weekly thereafter, 30 ticks (D. variabilis nymphs) were released onto the back of each rat, and 30 fleas (C. felis) were released onto the back of each rat 24 h later.
(§5) Tick and Flea counting: Rats were thoroughly examined and ticks and fleas were manually removed 48 h (+4 h) after tick infestation and 24 h after flea infestation. Live fleas and live attached engorged ticks were counted. In non-evident cases, engorgement status was evaluated by squeezing the tick on a filter paper to find traces of blood as sign for engorgement.

Amblyomma americanum = experiment: In vitro contact test with hard ticks (Amblyomma americanum nymphs); conditions: read-out: acaricidal activity; for pest or weed control at 0.2 µg/cm2, 0.2 µg/cm2: dose 0.2 μg/cm^2, 48 h; for pest or weed control at 1 µg/cm2, 1 µg/cm2: dose 1 μg/cm^2, 48 h
In short: (§6)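 Acaricidal activity = % ticks dead or moribund after 48 h contact with acetone-deposited compound on vial walls (e.g., 900 ppm solution → 5 μg/cm^2). Ambient conditions for R. sanguineus, 21° C./85% rel. hum. for other species; heat challenge at 45-50° C. separated climbers from moribund ticks.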

Ixodes ricinus = experiment: In vitro contact test with adult hard ticks (Ixodes ricinus); conditions: read-out: acaricidal activity; for pest or weed control at 0.2 µg/cm2, 0.2 µg/cm2: dose 0.2 μg/cm^2, 48 h; for pest or weed control at 1 µg/cm2, 1 µg/cm2: dose 1 μg/cm^2, 48 h; for pest or weed control at 5 µg/cm2, 5 µg/cm2: dose 5 μg/cm^2, 48 h
In short: as §6

[1] = tested on: Rhipicephalus (Boophilus) microplus; experiment: In vitro injection test with Rhipicephalus (Boophilus) microplus (BOOPMI Inj); conditions: 168 h, laid fertile eggs after 7 days, read-out: acaricidal activity; for pest or weed control at 32 ng: dose 0.032 μg/animal injected; for pest or weed control at 0.00016 mg: dose 0.16 μg/animal injected; for pest or weed control at 0.0008 mg: dose 0.8 μg/animal injected; for pest or weed control at 6.4 ng: dose 0.0064 μg/animal injected
In short: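 Five engorged adult females each get a 1 μl abdominal injection of compound dissolved and diluted in DMSO. Kept 7 days at 28° C./85% rel. hum.; percent activity rates egg laying and egg fertility (0% all fertile, 100% none laid or infertile).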

Dermacentor variabilis [2] = experiment: Systemic treatment in-vivo test with American dog tick nymph on rats; conditions: Dermacentor variabilis, ip, intraperitoneal injection
Description: Systemic Treatment In-Vivo Test with American Dog Tick Nymph and Cat Flea on Rats
Type of study and overall study design: The method is a randomized non-blinded efficacy study in accordance with European animal welfare requirements. Rats (Rattus norvegicus) were randomized based on pre-treatment flea counts. The efficacy of treatment was determined by comparison of the flea and tick counts of different treatment groups versus the placebo-treated control group. The experimental unit was the individual study animal. Method and route of administration: The compound was applied in a suitable solvent and carrier (more specifically, added to glycerol formal; in case of poorly soluble compounds, a solvent mixture with up to 25% by volume of N-methyl pyrrolidone may be used.) considering the individual body weight as an intraperitoneal injection.
as §4
as §5, with “(±4” for “(+4”

Dermacentor variabilis [3] = experiment: Topical treatment in-vivo test with American dog tick nymph on rats; conditions: topical spot-on, 25 mg/kg
Description: as §1, §2, §3, §4, §5

[4] = SD 2, read-out: Geometric mean percent reduction in live tick (Dermacentor variabilis) counts compared to untreated control rats
[5] = SD 9, read-out: Geometric mean percent reduction in live tick (Dermacentor variabilis) counts compared to untreated control rats
[6] = SD 16, read-out: Geometric mean percent reduction in live tick (Dermacentor variabilis) counts compared to untreated control rats
[7] = SD 23, read-out: Geometric mean percent reduction in live tick (Dermacentor variabilis) counts compared to untreated control rats
[8] = SD 30, read-out: Geometric mean percent reduction in live tick (Dermacentor variabilis) counts compared to untreated control rats

Row | SMILES | pest or weed control at 0.2 µg/cm2, 0.2 µg/cm2 (Amblyomma americanum) [%] | pest or weed control at 1 µg/cm2, 1 µg/cm2 (Amblyomma americanum) [%] | pest or weed control at 5 µg/cm2, 5 µg/cm2 (Ixodes ricinus) [%] | pest or weed control at 32 ng [1] [%] | pest or weed control at 0.00016 mg [1] [%] | pest or weed control at 0.0008 mg [1] [%] | inhibition in vivo at 10 mg/kg (Dermacentor variabilis [2]; [4]) [%] | inhibition in vivo at 10 mg/kg (Dermacentor variabilis [2]; [5]) [%] | inhibition in vivo at 10 mg/kg (Dermacentor variabilis [2]; [6]) [%] | inhibition in vivo at 10 mg/kg (Dermacentor variabilis [2]; [7]) [%] | inhibition in vivo at 10 mg/kg (Dermacentor variabilis [2]; [8]) [%] | also measured
1 | CN(C(=O)c1ccc(F)cc1)c1cccc(C(=O)Nc2c(I)cc(C(F)(C(F)(F)F)C(F)(F)F)cc2C(F)(F)F)c1F [Compound 24] | 90 | 90 | 90 | 100 | 100 | 100 | – | – | – | – | – | Geometric mean percent reduction in live flea (Ctenocephalides felis) counts compared to untreated control rats (Ctenocephalides felis; 10 mg/kg, SD 2): 100%; Geometric mean percent reduction in live flea (Ctenocephalides felis) counts compared to untreated control rats (Ctenocephalides felis; 10 mg/kg, SD 9): 99%; Geometric mean percent reduction in live flea (Ctenocephalides felis) counts compared to untreated control rats (Ctenocephalides felis; 10 mg/kg, SD 16): 97%; Geometric mean percent reduction in live flea (Ctenocephalides felis) counts compared to untreated control rats (Ctenocephalides felis; 10 mg/kg, SD 23): 96%; Geometric mean percent reduction in live flea (Ctenocephalides felis) counts compared to untreated control rats (Ctenocephalides felis; 10 mg/kg, SD 30): 77%; pest or weed control at 0.2 µg/cm2, 0.2 µg/cm2 (Ixodes ricinus): 90%; pest or weed control at 1 µg/cm2, 1 µg/cm2 (Ixodes ricinus): 90%
2 | CN(C(=O)c1ccc(F)cc1)c1cccc(C(=O)Nc2c(I)cc(C(F)(C(F)(F)F)C(F)(F)C(F)(F)F)cc2C(F)(F)F)c1F (stereo not shown) [Compound 37] | 90 | 90 | – | 100 | 100 | 100 | 100 | 100 | 99 | 99 | 80 | pest or weed control at 6.4 ng [1]: 100%
3 | CN(C(=O)c1ccc(F)c(F)c1)c1cccc(C(=O)Nc2c(I)cc(C(F)(C(F)(F)F)C(F)(F)F)cc2C(F)(F)F)c1F [Compound 51] | – | 90 | – | 100 | 100 | 100 | – | – | – | – | – | Geometric mean percent reduction in live flea (Ctenocephalides felis) counts compared to untreated control rats (Ctenocephalides felis; 25 mg/kg, SD 2): 100%; Geometric mean percent reduction in live flea (Ctenocephalides felis) counts compared to untreated control rats (Ctenocephalides felis; 25 mg/kg, SD 9): 98%; Geometric mean percent reduction in live flea (Ctenocephalides felis) counts compared to untreated control rats (Ctenocephalides felis; 25 mg/kg, SD 16): 91%; Geometric mean percent reduction in live flea (Ctenocephalides felis) counts compared to untreated control rats (Ctenocephalides felis; 25 mg/kg, SD 23): 95%; Geometric mean percent reduction in live flea (Ctenocephalides felis) counts compared to untreated control rats (Ctenocephalides felis; 25 mg/kg, SD 30): 93%; Geometric mean percent reduction in live tick (Dermacentor variabilis) counts compared to untreated control rats (Dermacentor variabilis [3]; SD 2): 82%; Geometric mean percent reduction in live tick (Dermacentor variabilis) counts compared to untreated control rats (Dermacentor variabilis [3]; SD 9): 95%; Geometric mean percent reduction in live tick (Dermacentor variabilis) counts compared to untreated control rats (Dermacentor variabilis [3]; SD 16): 80%; Geometric mean percent reduction in live tick (Dermacentor variabilis) counts compared to untreated control rats (Dermacentor variabilis [3]; SD 23): 73%; Geometric mean percent reduction in live tick (Dermacentor variabilis) counts compared to untreated control rats (Dermacentor variabilis [3]; SD 30): 55%
4 | CN(C(=O)c1ccc(C(F)(F)F)nc1)c1cccc(C(=O)Nc2c(I)cc(C(F)(C(F)(F)F)C(F)(F)F)cc2C(F)(F)F)c1F [Compound 66, N-(2-fluoro-3-((2-iodo-4-(perfluoropropan-2-yl)-6-(trifluoromethyl)phenyl)carbamoyl)phenyl)-N-methyl-6-(trifluoromethyl)nicotinamide] | – | – | – | – | 100 | 100 | 100 | 100 | 100 | 100 | 95 | –
5 | CN(C(=O)c1ccc(F)cc1)c1cccc(C(=O)Nc2c(I)cc(C(F)(C(F)(F)F)C(F)(F)F)cc2OC(F)(F)F)c1F [Compound 74] | 90 | 90 | 90 | 100 | 100 | 100 | 100 | 100 | 90 | 89 | 78 | pest or weed control at 1 µg/cm2, 1 µg/cm2 (Ixodes ricinus): 90%
6 | CN(C(=O)c1ccc(F)cc1)c1cccc(C(=O)Nc2c(I)cc(C(F)(C(F)(F)F)C(F)(F)C(F)(F)F)cc2OC(F)F)c1F (stereo not shown) [Compound 103] | 90 | 90 | 90 | 100 | 100 | 100 | 100 | 100 | 74 | 43 | – | pest or weed control at 0.2 µg/cm2, 0.2 µg/cm2 (Ixodes ricinus): 90%; pest or weed control at 6.4 ng [1]: 100%
7 | CN(C(=O)c1ccc(F)nc1)c1cccc(C(=O)Nc2c(I)cc(C(F)(C(F)(F)F)C(F)(F)F)cc2C(F)(F)F)c1F [Compound 115, 6-fluoro-N-(2-fluoro-3-((2-iodo-4-(perfluoropropan-2-yl)-6-(trifluoromethyl)phenyl)carbamoyl)phenyl)-N-methylnicotinamide] | 90 | 90 | 90 | 100 | 100 | 100 | 100 | 99 | 86 | 46 | 17 | –
8 | CN(C(=O)c1ccc(C(F)(F)F)nc1)c1cccc(C(=O)Nc2c(I)cc(C(F)(C(F)(F)F)C(F)(F)C(F)(F)F)cc2C(F)(F)F)c1F (stereo not shown) [Compound 119] | – | 90 | – | 100 | 100 | 100 | 100 | 100 | 100 | 89 | 61 | inhibition in vivo at 2 mg/kg (Dermacentor variabilis [2]; [4]): 100%; inhibition in vivo at 2 mg/kg (Dermacentor variabilis [2]; [5]): 96%; inhibition in vivo at 2 mg/kg (Dermacentor variabilis [2]; [6]): 63%; inhibition in vivo at 2 mg/kg (Dermacentor variabilis [2]; [7]): 1%; inhibition in vivo at 2 mg/kg (Dermacentor variabilis [2]; [8]): 61%
